Measured values: patent publication US20260022142A1, “MACROCYCLIC IMMUNOMODULATORS” (Bristol-Myers Squibb Company, priority 2022, published 2026)
Bridge positions count the residues as written; N and C are the ends. Square brackets hold non-standard residues; d marks the D form. Peptide text beside a SMILES is read from it. * marks the point of attachment. ξ: configuration not given here. Phe(4-COOH) = N[C@@H](Cc1ccc(C(=O)O)cc1)C(=O)O; Bip = N[C@@H](Cc1ccc(-c2ccccc2)cc1)C(=O)O; Nle(6-COOH) = N[C@@H](CCCCC(=O)O)C(=O)O; Phe(3-Me) = Cc1cccc(C[C@H](N)C(=O)O)c1; Cha = N[C@@H](CC1CCCCC1)C(=O)O; Cit = NC(=O)NCCC[C@H](N)C(=O)O; Thr(3ξ) = CC(O)[C@H](N)C(=O)O; Carboxymethyl = O=C(O)C*; Orn = NCCC[C@H](N)C(=O)O; Aun = NCCCCCCCCCCC(=O)O; Dab = NCC[C@H](N)C(=O)O; AEEA = NCCOCCOCC(=O)O

Molecular target: T1, PD-1/PD-L1 interaction (PE-labeled human PD-L1-Ig binding to Jurkat cell line over-expressing human PD-1) (Homo sapiens, UniProt Q15116)
T1 construct: expressed in transfected cells; host or cells: Jurkat
Test: Jurkat-PD-1 Cell Binding High-Content Screening Assay (CBA)
Type: cell-based
Details: Jurkat cell line over-expressing human PD-1; PE-labeled PD-L1-Ig 20 nM final; read-out: Jurkat hPD1-PDL1 IC50
How it was run: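 Jurkat cells over-expressing human PD-1 (8×10^3 per well, DMEM/10% FCS) preincubated with compound 2 h at 37° C, then PE-labeled human PD-L1-Ig (20 nM final) added for 1 h. Cells fixed with paraformaldehyde, Hoechst-stained, and bound fluorescence quantified by high-content imaging.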

T1 sequence (Q15116 25-288): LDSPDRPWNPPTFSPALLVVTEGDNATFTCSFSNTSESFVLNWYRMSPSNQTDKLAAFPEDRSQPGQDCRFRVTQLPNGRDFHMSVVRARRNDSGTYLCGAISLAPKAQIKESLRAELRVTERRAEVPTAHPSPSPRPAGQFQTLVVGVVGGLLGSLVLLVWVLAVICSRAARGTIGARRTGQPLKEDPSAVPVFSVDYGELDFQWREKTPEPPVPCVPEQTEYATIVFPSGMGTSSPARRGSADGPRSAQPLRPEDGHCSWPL

## Cc1cccc(C[C@@H]2NC(=O)[C@H](CC(=O)O)NC(=O)[C@H](Cc3ccc(OCC(=O)O)cc3)NC(=O)[C@H](CCCNC(=N)N)NC(=O)CSC[C@@H](C(=O)N[C@@H](CCN)C(=O)NCCCCCCCCCCC(=O)O)NC(=O)[C@H](CCC(N)=O)NC(=O)[C@H](C(C)C)NC(=O)[C@H](CC3CCCCC3)NC(=O)[C@H](CCN)NC(=O)[C@@H](CC(C)C)NC(=O)[C@H](CCCN)NC(=O)[C@H](Cc3ccc(O)cc3)NC(=O)[C@H](Cc3ccc(-c4ccccc4)cc3)NC(=O)[C@H](CC(C)C)NC2=O)c1 [Compound 3380] ({CH2CO}-RY(Carboxymethyl)D[Phe(3-Me)]L[Bip]Y[Orn][dL][Dab][Cha]VQC[Dab][Aun]-OH; thioether N-14)
  IC50: 20.6 nM

## Cc1cccc(C[C@@H]2NC(=O)[C@H](CC(=O)O)NC(=O)[C@H](Cc3ccc(OCC(=O)O)cc3)NC(=O)[C@H](CCCNC(=N)N)NC(=O)CSC[C@@H](C(=O)N[C@@H](CCN)C(=O)NCCCCCCCCCCC(=O)O)NC(=O)[C@H](CCC(=O)O)NC(=O)[C@H](C(C)C)NC(=O)[C@H](CC3CCCCC3)NC(=O)[C@H](CCN)NC(=O)[C@@H](CC(C)C)NC(=O)[C@H](CCCN)NC(=O)[C@H](Cc3ccc(O)cc3)NC(=O)[C@H](Cc3ccc(-c4ccccc4)cc3)NC(=O)[C@H](Cc3ccc(O)cc3)NC2=O)c1 [Compound 3381] ({CH2CO}-RY(Carboxymethyl)D[Phe(3-Me)]Y[Bip]Y[Orn][dL][Dab][Cha]VEC[Dab][Aun]-OH; thioether N-14)
  IC50: 8.9 nM

## Cc1cccc(C[C@@H]2NC(=O)[C@H](CC(=O)O)NC(=O)[C@H](Cc3ccc(OCC(=O)O)cc3)NC(=O)[C@H](CCCNC(=N)N)NC(=O)CSC[C@@H](C(=O)N[C@@H](CCN)C(=O)NCCCCCCCCCCC(=O)O)NC(=O)[C@H](CCC(N)=O)NC(=O)[C@H](C(C)C)NC(=O)[C@H](CC3CCCCC3)NC(=O)[C@H](CCN)NC(=O)[C@@H](CC(C)C)NC(=O)[C@H](CCCN)NC(=O)[C@H](Cc3ccc(O)cc3)NC(=O)[C@H](Cc3ccc(-c4ccccc4)cc3)NC(=O)[C@H](Cc3ccc(O)cc3)NC2=O)c1 [Compound 3382] ({CH2CO}-RY(Carboxymethyl)D[Phe(3-Me)]Y[Bip]Y[Orn][dL][Dab][Cha]VQC[Dab][Aun]-OH; thioether N-14)
  IC50: 10.8 nM

## Cc1cccc(C[C@@H]2NC(=O)[C@H](CC(=O)O)NC(=O)[C@H](Cc3ccc(OCC(=O)O)cc3)NC(=O)[C@H](CCCNC(=N)N)NC(=O)CSC[C@@H](C(=O)N[C@@H](CCN)C(=O)NCCCCCCCCCCC(=O)O)NC(=O)[C@H](CCCNC(N)=O)NC(=O)[C@H](C(C)C)NC(=O)[C@H](CC3CCCCC3)NC(=O)[C@H](CCN)NC(=O)[C@@H](CC(C)C)NC(=O)[C@H](CCCN)NC(=O)[C@H](Cc3ccc(OCC(=O)O)cc3)NC(=O)[C@H](Cc3ccc(-c4ccccc4)cc3)NC(=O)[C@H](C(C)C)NC2=O)c1 [Compound 3383] ({CH2CO}-RY(Carboxymethyl)D[Phe(3-Me)]V[Bip]Y(Carboxymethyl)[Orn][dL][Dab][Cha]V[Cit]C[Dab][Aun]-OH; thioether N-14)
  IC50: 8.2 nM

## Cc1cccc(C[C@@H]2NC(=O)[C@H](CC(=O)O)NC(=O)[C@H](Cc3ccc(OCC(=O)O)cc3)NC(=O)[C@H](CCCNC(=N)N)NC(=O)CSC[C@@H](C(=O)N[C@@H](CCN)C(=O)NCCCCCCCCCCC(=O)O)NC(=O)[C@H](CCC(=O)O)NC(=O)[C@H](C(C)C)NC(=O)[C@H](CC3CCCCC3)NC(=O)[C@H](CCN)NC(=O)[C@@H](CC(C)C)NC(=O)[C@H](CCCN)NC(=O)[C@H](CCC(N)=O)NC(=O)[C@H](Cc3ccc(-c4ccccc4)cc3)NC(=O)[C@H](C(C)C)NC2=O)c1 [Compound 3384] ({CH2CO}-RY(Carboxymethyl)D[Phe(3-Me)]V[Bip]Q[Orn][dL][Dab][Cha]VEC[Dab][Aun]-OH; thioether N-14)
  IC50: 9.2 nM

## CSCC[C@@H]1NC(=O)[C@H](Cc2ccc(-c3ccccc3)cc2)NC(=O)[C@H](C(C)C)NC(=O)[C@H](Cc2cccc(C)c2)NC(=O)[C@H](CC(=O)O)NC(=O)[C@H](Cc2ccc(OCC(=O)O)cc2)NC(=O)[C@H](CCCNC(=N)N)NC(=O)CSC[C@@H](C(=O)N[C@@H](CCN)C(=O)NCCCCCCCCCCC(=O)O)NC(=O)[C@H](CCC(N)=O)NC(=O)[C@H](C(C)C)NC(=O)[C@H](CC2CCCCC2)NC(=O)[C@H](CCN)NC(=O)[C@@H](CC(C)C)NC(=O)[C@H](CCCN)NC1=O [Compound 3385] ({CH2CO}-RY(Carboxymethyl)D[Phe(3-Me)]V[Bip]M[Orn][dL][Dab][Cha]VQC[Dab][Aun]-OH; thioether N-14)
  IC50: 16.5 nM

## CC(=O)NCCCC[C@@H]1NC(=O)[C@H](Cc2ccc(-c3ccccc3)cc2)NC(=O)[C@H](Cc2ccc(O)cc2)NC(=O)[C@H](Cc2cccc(C)c2)NC(=O)[C@H](CC(=O)O)NC(=O)[C@H](Cc2ccc(OCC(=O)O)cc2)NC(=O)[C@H](CCCNC(=N)N)NC(=O)CSC[C@@H](C(=O)N[C@@H](CCN)C(=O)NCCCCCCCCCCC(=O)O)NC(=O)[C@H](CCCNC(N)=O)NC(=O)[C@H](C(C)C)NC(=O)[C@H](CC2CCCCC2)NC(=O)[C@H](CCN)NC(=O)[C@@H](CC(C)C)NC(=O)[C@H](CCCN)NC1=O [Compound 3386] ({CH2CO}-RY(Carboxymethyl)D[Phe(3-Me)]Y[Bip]K(Ac)[Orn][dL][Dab][Cha]V[Cit]C[Dab][Aun]-OH; thioether N-14)
  IC50: 4.4 nM

## Cc1cccc(C[C@@H]2NC(=O)[C@H](CC(=O)O)NC(=O)[C@H](Cc3ccc(OCC(=O)O)cc3)NC(=O)[C@H](CCCNC(=N)N)NC(=O)CSC[C@@H](C(=O)N[C@@H](CCN)C(=O)NCCCCCCCCCCC(=O)O)NC(=O)[C@H](C(C)O)NC(=O)[C@H](C(C)C)NC(=O)[C@H](CC3CCCCC3)NC(=O)[C@H](CCN)NC(=O)[C@@H](CC(C)C)NC(=O)[C@H](CCCN)NC(=O)[C@H](Cc3ccc(OCC(=O)O)cc3)NC(=O)[C@H](Cc3ccc(-c4ccccc4)cc3)NC(=O)[C@H](CC(C)C)NC2=O)c1 (stereo partly drawn) [Compound 3387] ({CH2CO}-RY(Carboxymethyl)D[Phe(3-Me)]L[Bip]Y(Carboxymethyl)[Orn][dL][Dab][Cha]V[Thr(3ξ)]C[Dab][Aun]-OH; thioether N-14)
  IC50: 20.5 nM

## Cc1cccc(C[C@@H]2NC(=O)[C@H](CC(=O)O)NC(=O)[C@H](Cc3ccc(OCC(=O)O)cc3)NC(=O)[C@H](CCCNC(=N)N)NC(=O)CSC[C@@H](C(=O)N[C@@H](CCN)C(=O)NCCCCCCCCCCC(=O)O)NC(=O)[C@H](CCCNC(N)=O)NC(=O)[C@H](C(C)C)NC(=O)[C@H](CC3CCCCC3)NC(=O)[C@H](CCN)NC(=O)[C@@H](CC(C)C)NC(=O)[C@H](CCCN)NC(=O)[C@H](CCCCC(=O)O)NC(=O)[C@H](Cc3ccc(-c4ccccc4)cc3)NC(=O)[C@H](C(C)C)NC2=O)c1 [Compound 3390] ({CH2CO}-RY(Carboxymethyl)D[Phe(3-Me)]V[Bip][Nle(6-COOH)][Orn][dL][Dab][Cha]V[Cit]C[Dab][Aun]-OH; thioether N-14)
  IC50: 9 nM

## CC(=O)NCCCC[C@@H]1NC(=O)[C@H](C(C)C)NC(=O)[C@H](CC2CCCCC2)NC(=O)[C@H](CCN)NC(=O)[C@@H](CC(C)C)NC(=O)[C@H](CCCN)NC(=O)[C@H](Cc2ccc(O)cc2)NC(=O)[C@H](Cc2ccc(-c3ccccc3)cc2)NC(=O)[C@H](C(C)C)NC(=O)[C@H](Cc2c[nH]c3ccccc23)NC(=O)[C@H](CC(=O)O)NC(=O)[C@H](Cc2ccc(OCC(=O)O)cc2)NC(=O)[C@H](CCCNC(=N)N)NC(=O)CSC[C@@H](C(=O)N[C@@H](CCN)C(=O)NCCCCCCCCCCC(=O)O)NC1=O [Compound 3391] ({CH2CO}-RY(Carboxymethyl)DWV[Bip]Y[Orn][dL][Dab][Cha]VK(Ac)C[Dab][Aun]-OH; thioether N-14)
  IC50: 8.8 nM

## CC(C)C[C@H]1NC(=O)[C@H](CCCN)NC(=O)[C@H](Cc2ccc(O)cc2)NC(=O)[C@H](Cc2ccc(-c3ccccc3)cc2)NC(=O)[C@H](C(C)C)NC(=O)[C@H](Cc2c[nH]c3ccccc23)NC(=O)[C@H](CC(=O)O)NC(=O)[C@H](Cc2ccc(C(=O)O)cc2)NC(=O)[C@H](CC(N)=O)NC(=O)CSC[C@@H](C(=O)N[C@@H](CCN)C(=O)NCCCCCCCCCCC(=O)O)NC(=O)[C@H](CCC(=O)O)NC(=O)[C@H](C(C)C)NC(=O)[C@H](CC2CCCCC2)NC(=O)[C@H](CCN)NC1=O [Compound 3392] ({CH2CO}-N[Phe(4-COOH)]DWV[Bip]Y[Orn][dL][Dab][Cha]VEC[Dab][Aun]-OH; thioether N-14)
  IC50: 13.3 nM

## CC(C)C[C@H]1NC(=O)[C@H](CCCN)NC(=O)[C@H](Cc2ccc(O)cc2)NC(=O)[C@H](Cc2ccc(-c3ccccc3)cc2)NC(=O)[C@H](C(C)C)NC(=O)[C@H](Cc2c[nH]c3ccccc23)NC(=O)[C@H](CC(=O)O)NC(=O)[C@H](Cc2ccc(OCC(=O)O)cc2)NC(=O)[C@H](CCCNC(=N)N)NC(=O)CSC[C@@H](C(=O)NCCOCCOCC(=O)NCCCCCCCCCCC(=O)O)NC(=O)[C@H](C(C)O)NC(=O)[C@H](C(C)C)NC(=O)[C@H](CC2CCCCC2)NC(=O)[C@H](CCN)NC1=O (stereo partly drawn) [Compound 3393] ({CH2CO}-RY(Carboxymethyl)DWV[Bip]Y[Orn][dL][Dab][Cha]V[Thr(3ξ)]C[AEEA][Aun]-OH; thioether N-14)
  IC50: 12.8 nM

## Cc1cccc(C[C@@H]2NC(=O)[C@H](CC(=O)O)NC(=O)[C@H](Cc3ccc(OCC(=O)O)cc3)NC(=O)[C@H](C(C)O)NC(=O)CSC[C@@H](C(=O)NCCOCCOCC(=O)NCCCCCCCCCCC(=O)O)NC(=O)[C@H](CCC(N)=O)NC(=O)[C@H](C(C)C)NC(=O)[C@H](CC3CCCCC3)NC(=O)[C@H](CCN)NC(=O)[C@@H](CC(C)C)NC(=O)[C@H](CCN)NC(=O)[C@H](Cc3ccc(O)cc3)NC(=O)[C@H](Cc3ccc(-c4ccccc4)cc3)NC(=O)[C@H](C(C)C)NC2=O)c1 (stereo partly drawn) [Compound 3394] ({CH2CO}-[Thr(3ξ)]Y(Carboxymethyl)D[Phe(3-Me)]V[Bip]Y[Dab][dL][Dab][Cha]VQC[AEEA][Aun]-OH; thioether N-14)
  IC50: 6.9 nM
